Measured values published in patent US20100105111A1, “METHOD FOR PRODUCTION OF OPTICALLY ACTIVE AMINO ACID” (Mitsubishi Gas Chemical Company, Inc., priority 2007, published 2010).

What was measured:
[1] = test system: nitrile hydratase derived from Rhodococcus opacus 71D; test: Substrate specificity of the purified enzyme from Rhodococcus opacus 71D (aminonitrile to amino acid amide, HPLC); details: for Relative activity for each substrate: enzymatic properties, activity for 2-aminobutyronitrile is 100; for Relative activity: 30° C., 0.1 M potassium phosphate buffer pH 7.0, activity for 2-aminobutyronitrile = 100
[2] = target: D-aminopeptidase derived from Ochrobactrum anthropi (Brucella anthropi, UniProt Q9ZBA9); details: activity for D-2-aminobutyric acid amide is 100; cited from earlier work
[3] = test system: enzyme selectively converting the L-amino acid amide into the L-amino acid, Xanthobacter flavus; details: activity for L-2-aminobutyric acid amide is 100; cited from earlier work
[4] = test system: L-amino acid amidase derived from Brevundimonas diminuta; details: activity for L-2-aminobutyric acid amide is 100; cited from earlier work
[5] = target: T1, aminocaprolactam racemase derived from Achromobacter obae (Achromobacter obae, UniProt Q7M181); details: activity for 2-aminobutyric acid amide is 100; cited from earlier work
T1 sequence (Q7M181 1-436): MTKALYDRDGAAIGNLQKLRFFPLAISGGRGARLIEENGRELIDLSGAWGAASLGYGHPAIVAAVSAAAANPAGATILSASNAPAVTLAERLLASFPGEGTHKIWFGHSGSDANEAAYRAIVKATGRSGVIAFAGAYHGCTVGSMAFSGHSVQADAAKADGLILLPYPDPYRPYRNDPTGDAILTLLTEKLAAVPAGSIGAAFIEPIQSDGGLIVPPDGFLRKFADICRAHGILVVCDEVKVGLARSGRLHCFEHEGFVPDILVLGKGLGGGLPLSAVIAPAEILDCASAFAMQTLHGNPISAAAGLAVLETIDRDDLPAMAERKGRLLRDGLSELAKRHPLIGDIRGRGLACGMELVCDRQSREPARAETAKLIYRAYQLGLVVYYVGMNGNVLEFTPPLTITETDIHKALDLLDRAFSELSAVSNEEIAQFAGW

Chain of D-aminopeptidase derived from Ochrobactrum anthropi (Q9ZBA9 whole entry, looked up): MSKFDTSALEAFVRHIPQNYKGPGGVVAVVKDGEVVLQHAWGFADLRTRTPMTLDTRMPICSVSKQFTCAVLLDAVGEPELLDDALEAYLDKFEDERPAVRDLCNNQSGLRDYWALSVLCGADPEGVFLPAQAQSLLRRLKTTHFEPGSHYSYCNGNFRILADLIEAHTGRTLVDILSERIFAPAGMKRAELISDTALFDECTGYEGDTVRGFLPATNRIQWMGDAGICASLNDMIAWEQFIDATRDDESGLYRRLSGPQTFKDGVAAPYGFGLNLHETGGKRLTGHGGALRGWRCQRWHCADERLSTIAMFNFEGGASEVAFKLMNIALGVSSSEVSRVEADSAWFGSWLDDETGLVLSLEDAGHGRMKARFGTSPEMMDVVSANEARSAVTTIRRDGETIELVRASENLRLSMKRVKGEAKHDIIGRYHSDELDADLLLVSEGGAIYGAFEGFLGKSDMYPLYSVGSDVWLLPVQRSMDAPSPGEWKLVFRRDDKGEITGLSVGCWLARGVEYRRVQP

CCC(N)C#N (stereo not drawn) [2-aminobutyronitrile]
Relative activity for each substrate [1]: 100
Relative activity ([1]; substrate 20 mM): 100

C[C@@H](N)C(N)=O [D-alaninamide]
Relative activity for each substrate [2]: 333

CC[C@H](N)C(N)=O [L-2-aminobutyric acid amide]
Relative activity for each substrate [3]: 100
Relative activity for each substrate [4]: 100

C[C@@H](O)[C@H](N)C(N)=O [L-threoninamide]
Relative activity for each substrate [5]: 63
Relative activity for each substrate [4]: 14.6

NC(=O)[C@@H](N)Cc1ccccc1 [L-phenylalaninamide]
Relative activity for each substrate [5]: 2
Relative activity for each substrate [3]: 111
Relative activity for each substrate [4]: 104

CC(C)[C@H](N)C(N)=O [L-valinamide]
Relative activity for each substrate [3]: 65
Relative activity for each substrate [4]: 17.7

N#C[C@@H](N)Cc1ccccc1 [Phenylalaninonitrile]
Relative activity for each substrate [1]: 42.9
Relative activity ([1]; substrate concentration 10 mM): 42.9

CCC[C@@H](N)C(N)=O [D-norvalinamide]
Relative activity for each substrate [2]: 6

CCC(N)C(N)=O (stereo not drawn) [2-aminobutyric acid amide]
Relative activity for each substrate [5]: 100

CC(C)[C@H](N)C#N [Valinonitrile]
Relative activity for each substrate [1]: 15.1
Relative activity ([1]; substrate 20 mM): 15.1

C[C@H](N)C(N)=O [L-alaninamide]
Relative activity for each substrate [5]: 78
Relative activity for each substrate [4]: 3.4

NC(=O)[C@H](N)CO [D-serinamide]
Relative activity for each substrate [2]: 97

CC(C)(C)[C@H](N)C(N)=O [L-t-leuicinamide]
Relative activity for each substrate [3]: 8.4
Relative activity for each substrate [4]: 0.2

CCCC[C@H](N)C(N)=O [L-norleuicinamide]
Relative activity for each substrate [5]: 56

C[C@H](O)[C@@H](N)C(N)=O [D-threoninamide]
Relative activity for each substrate [2]: 30

CC(C)C[C@H](N)C(N)=O [L-leuicinamide]
Relative activity for each substrate [5]: 48
Relative activity for each substrate [4]: 92.7

CCC[C@H](N)C(N)=O [L-norvalinamide]
Relative activity for each substrate [5]: 63

CSCC[C@@H](N)C(N)=O [D-methioninamide]
Relative activity for each substrate [2]: 6.7

CC(C)(C)C(N)C#N (stereo not drawn) [t-leuicinonitrile]
Relative activity for each substrate [1]: 1.80
Relative activity ([1]; substrate 20 mM): 1.8

CC(N)C#N (stereo not drawn) [Alaninonitrile]
Relative activity for each substrate [1]: 77
Relative activity ([1]; substrate 20 mM): 77.0

NC(=O)[C@@H](N)c1ccccc1 [L-phenylglycinamide]
Relative activity for each substrate [3]: 113

CCCC[C@@H](N)C(N)=O [D-norleuicinamide]
Relative activity for each substrate [2]: 2.7

NC(=O)[C@@H](N)CO [L-serinamide]
Relative activity for each substrate [5]: 17
Relative activity for each substrate [4]: 2.9

NC(=O)[C@H](N)c1ccccc1 [D-phenylglycinamide]
Relative activity for each substrate [2]: 2.3

CSCC[C@H](N)C(N)=O [L-methioninamide]
Relative activity for each substrate [5]: 35
Relative activity for each substrate [4]: 85.4

CC[C@H](C)[C@H](N)C(N)=O [L-isoleuicinamide]
Relative activity for each substrate [4]: 30.2

N#CC(N)c1ccccc1 (stereo not drawn) [Phenylglycinonitirle]
Relative activity for each substrate [1]: 177
Relative activity ([1]; substrate 20 mM): 177

CC[C@@H](N)C(N)=O [D-2-aminobutyric acid amide]
Relative activity for each substrate [2]: 100

CC(C)C[C@H](N)C#N [leucinonitrile]
Relative activity for each substrate [1]: 11.8
